Measured values reported in patent publication US6355799B1, “Substituted benzene compounds, process for their preparation, and herbicidal and defoliant compositions containing them” (ISK Americas Incorporated, priority 1997, dated 2002).

Experiments:
Assay type in all cases: in vivo
[1] = test system: lambsquarters (Chenopodium album, CHEAL); experiment: Post-emerge test, greenhouse herbicide activity screening; settings: rating scale 0-100 (0 no damage, 100 complete death), 14 days after application
In short: (§1)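 Compounds in acetone were track-sprayed at 15–1000 g ai/ha: pre-emergence onto soil sown the previous day, then top-watered to incorporate and later bottom-watered; post-emergence onto 2–3 leaf plants with 0.25% v/v surfactant, bottom-watered only. Ratings on a 0–100 phytotoxicity scale were taken at day 14.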

[2] = test system: barnyardgrass (Echinochloa crus-galli, ECHCG); experiment: as above; settings: rating scale 0-100 (0 no damage, 100 complete death), 14 days after application
In short: as §1

[3] = test system: ivyleaf morningglory (Ipomoea hederacea, IPOHE); experiment: as above; settings: rating scale 0-100 (0 no damage, 100 complete death), 14 days after application
In short: as §1

[4] = test system: velvetleaf (Abutilon theophrasti, ABUTH); experiment: as above; settings: rating scale 0-100 (0 no damage, 100 complete death), 14 days after application
In short: as §1

[5] = test system: green foxtail (Setaria viridis, SETVI); experiment: as above; settings: rating scale 0-100 (0 no damage, 100 complete death), 14 days after application
In short: as §1

[6] = test system: redroot pigweed (Amaranthus retroflexus, AMARE); experiment: as above; settings: rating scale 0-100 (0 no damage, 100 complete death), 14 days after application
In short: as §1

[7] = test system: johnsongrass (Sorghum halepense, SORHA); experiment: as above; settings: rating scale 0-100 (0 no damage, 100 complete death), 14 days after application
In short: as §1

[8] = test system: sicklepod (Cassia obtusifolia, CASOB); experiment: as above; settings: rating scale 0-100 (0 no damage, 100 complete death), 14 days after application
In short: as §1

[9] = test system: large crabgrass (Digitaria sanguinalis, DIGSA); experiment: as above; settings: rating scale 0-100 (0 no damage, 100 complete death), 14 days after application
In short: as §1

[10] = test system: upland rice (Oryza sp., var. Tebonnet, RICE); experiment: Pre-emerge test, crop safety; settings: rating scale 0-100, 14 days after application
In short: (§2)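 Compounds in acetone were track-sprayed at 15-1000 g ai/ha (187 l/ha) on sandy loam pots: pre-emerge one day after seeding, post-emerge at 2-3 leaf stage with 0.25% v/v non-ionic surfactant. Phytotoxicity was rated 14 days later on a 0 (no damage) to 100 (complete death) scale.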

[11] = test system: field corn (Zea mays L., var. Dekalb 535, CORN); experiment: Pre-emerge test, crop safety; settings: rating scale 0-100, 14 days after application
In short: as §2

[12] = test system: lambsquarters (Chenopodium album, CHEAL); experiment: Pre-emerge test, greenhouse herbicide activity screening; settings: rating scale 0-100, 14 days after application
In short: (§3)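 Herbicidal damage is scored 0 (none) to 100 (complete plant death) two weeks after a simulated field spray. Rates span 15–1000 g ai/ha, delivered in acetone at 187 l/ha. For post-emergence treatments, plants have 2–3 leaves and the spray carries 0.25% v/v non-ionic surfactant.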

[13] = test system: barnyardgrass (Echinochloa crus-galli, ECHCG); experiment: as above; settings: rating scale 0-100, 14 days after application
In short: as §3

[14] = test system: ivyleaf morningglory (Ipomoea hederacea, IPOHE); experiment: as above; settings: rating scale 0-100, 14 days after application
In short: as §3

[15] = test system: velvetleaf (Abutilon theophrasti, ABUTH); experiment: as above; settings: rating scale 0-100, 14 days after application
In short: as §3

[16] = test system: green foxtail (Setaria viridis, SETVI); experiment: as above; settings: rating scale 0-100, 14 days after application
In short: as §3

[17] = test system: johnsongrass (Sorghum halepense, SORHA); experiment: as above; settings: rating scale 0-100, 14 days after application
In short: as §3

[18] = test system: sicklepod (Cassia obtusifolia, CASOB); experiment: as above; settings: rating scale 0-100, 14 days after application
In short: as §3

[19] = test system: common ragweed (Ambrosia artemisizfolia L., AMBEL); experiment: as above; settings: rating scale 0-100, 14 days after application
In short: as §3

[20] = test system: large crabgrass (Digitaria sanguinalis, DIGSA); experiment: as above; settings: rating scale 0-100, 14 days after application
In short: as §3

[21] = test system: upland rice (Oryza sp., var. Tebonnet, RICE); experiment: Post-emerge test, crop safety; settings: rating scale 0-100 (0 no damage, 100 complete death), 14 days after application
In short: as §3

[22] = test system: field corn (Zea mays L., var. Dekalb 535, CORN); experiment: Post-emerge test, crop safety; settings: rating scale 0-100 (0 no damage, 100 complete death), 14 days after application
In short: as §3

[23] = test system: redroot pigweed (Amaranthus retroflexus, AMARE); experiment: Pre-emerge test, greenhouse herbicide activity screening; settings: rating scale 0-100, 14 days after application
In short: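 Sandy loam pots; pre-emerge: sown 1 d pre-spray, surface-watered after, then bottom-watered. Post-emerge: sown 8–21 d before, 2–3 leaf stage, + 0.25% v/v NIS, bottom-watered. Acetone, 187 l/ha track spray, 15–1000 g ai/ha. 0–100 injury score, day 14.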

## C=COC(=O)C(C)(Cl)Cc1c(OC)c(Cl)cc(F)c1-n1c(=O)cc(C(F)(F)F)n(C)c1=O (stereo not shown) [14-42]
[1]; Rate 63 g ai/ha
  Post-emerge Herbicidal Activity, phytotoxicity rating CHEAL: 100
[1]; Rate 250 g ai/ha
  Post-emerge Herbicidal Activity, phytotoxicity rating CHEAL: 100
[2]; Rate 63 g ai/ha
  Post-emerge Herbicidal Activity, phytotoxicity rating ECHCG: 100
[2]; Rate 250 g ai/ha
  Post-emerge Herbicidal Activity, phytotoxicity rating ECHCG: 100
[3]; Rate 63 g ai/ha
  Post-emerge Herbicidal Activity, phytotoxicity rating IPOHE: 100
[3]; Rate 250 g ai/ha
  Post-emerge Herbicidal Activity, phytotoxicity rating IPOHE: 100
[4]; Rate 63 g ai/ha
  Post-emerge Herbicidal Activity, phytotoxicity rating ABUTH: 100
[4]; Rate 250 g ai/ha
  Post-emerge Herbicidal Activity, phytotoxicity rating ABUTH: 100
[5]; Rate 63 g ai/ha
  Post-emerge Herbicidal Activity, phytotoxicity rating SETVI: 100
[5]; Rate 250 g ai/ha
  Post-emerge Herbicidal Activity, phytotoxicity rating SETVI: 100
[6]; Rate 63 g ai/ha
  Post-emerge Herbicidal Activity, phytotoxicity rating AMARE: 100
[6]; Rate 250 g ai/ha
  Post-emerge Herbicidal Activity, phytotoxicity rating AMARE: 100
[7]; Rate 63 g ai/ha
  Post-emerge Herbicidal Activity, phytotoxicity rating SORHA: 60
[7]; Rate 250 g ai/ha
  Post-emerge Herbicidal Activity, phytotoxicity rating SORHA: 95
[8]; Rate 63 g ai/ha
  Post-emerge Herbicidal Activity, phytotoxicity rating CASOB: 60
[8]; Rate 250 g ai/ha
  Post-emerge Herbicidal Activity, phytotoxicity rating CASOB: 90
[9]; Rate 63 g ai/ha
  Post-emerge Herbicidal Activity, phytotoxicity rating DIGSA: 95
[9]; Rate 250 g ai/ha
  Post-emerge Herbicidal Activity, phytotoxicity rating DIGSA: 100
[10]; 63 g ai/ha
  Pre-emerge phytotoxicity rating, crop damage RICE: 10
[10]; 250 g ai/ha
  Pre-emerge phytotoxicity rating, crop damage RICE: 30
[11]; 63 g ai/ha
  Pre-emerge phytotoxicity rating, crop damage CORN: 0
[11]; 250 g ai/ha
  Pre-emerge phytotoxicity rating, crop damage CORN: 20
[12]; 63 g ai/ha
  Pre-emerge herbicidal activity, phytotoxicity rating CHEAL: 90
[12]; 250 g ai/ha
  Pre-emerge herbicidal activity, phytotoxicity rating CHEAL: 100
[13]; 63 g ai/ha
  Pre-emerge herbicidal activity, phytotoxicity rating ECHCG: 0
[13]; 250 g ai/ha
  Pre-emerge herbicidal activity, phytotoxicity rating ECHCG: 20
[14]; 63 g ai/ha
  Pre-emerge herbicidal activity, phytotoxicity rating IPOHE: 0
[14]; 250 g ai/ha
  Pre-emerge herbicidal activity, phytotoxicity rating IPOHE: 30
[15]; 63 g ai/ha
  Pre-emerge herbicidal activity, phytotoxicity rating ABUTH: 80
[15]; 250 g ai/ha
  Pre-emerge herbicidal activity, phytotoxicity rating ABUTH: 95
[16]; 63 g ai/ha
  Pre-emerge herbicidal activity, phytotoxicity rating SETVI: 30
[16]; 250 g ai/ha
  Pre-emerge herbicidal activity, phytotoxicity rating SETVI: 80
[17]; 63 g ai/ha
  Pre-emerge herbicidal activity, phytotoxicity rating SORHA: 0
[17]; 250 g ai/ha
  Pre-emerge herbicidal activity, phytotoxicity rating SORHA: 0
[18]; 63 g ai/ha
  Pre-emerge herbicidal activity, phytotoxicity rating CASOB: 0
[18]; 250 g ai/ha
  Pre-emerge herbicidal activity, phytotoxicity rating CASOB: 0
[19]; 63 g ai/ha
  Pre-emerge herbicidal activity, phytotoxicity rating AMBEL: 0
[19]; 250 g ai/ha
  Pre-emerge herbicidal activity, phytotoxicity rating AMBEL: 100
[20]; 63 g ai/ha
  Pre-emerge herbicidal activity, phytotoxicity rating DIGSA: 0
[20]; 250 g ai/ha
  Pre-emerge herbicidal activity, phytotoxicity rating DIGSA: 50
[21]; Rate 63 g ai/ha
  Post-emerge phytotoxicity rating RICE (crop damage): 95
[21]; Rate 250 g ai/ha
  Post-emerge phytotoxicity rating RICE (crop damage): 100
[22]; Rate 63 g ai/ha
  Post-emerge phytotoxicity rating CORN (crop damage): 100
[22]; Rate 250 g ai/ha
  Post-emerge phytotoxicity rating CORN (crop damage): 100
[23]; 63 g ai/ha
  Pre-emerge herbicidal activity, phytotoxicity rating AMARE: 95
[23]; 250 g ai/ha
  Pre-emerge herbicidal activity, phytotoxicity rating AMARE: 100
